# Assay results as given in patent US20090176817A1, “Method of Treatment of Diarrhea-Predominant Irritable Bowel Syndrome in a Subject” (priority 2005, published 2009).
# Marks after values point to notes of the source that are not given here.
# What was measured:
# [1] = Study S.241.1.107: pharmacokinetics in hepatic impairment, 8 mg TID; conditions: for AUC(0-τ): AUC(0-8); for AUC(0-τ) / Cmax / T½: arith. mean (%CV); for Tmax: median
# Protocol: The effect of hepatic impairment on the pharmacokinetics of cilansetron was evaluated in a multiple-dose, parallel group study in 14 healthy and 14 moderately to severely hepatically impaired male and female subjects, aged 41-70 years. Impaired subjects (Child-Pugh score 7 to 11) were matched to healthy subjects by age (±2 years), sex, menstrual status, and smoking history status. All subjects received oral cilansetron 8 mg TID on Days 1 to 5, and a single dose on the morning of Day 6. […] Blood samples were also collected at predose on Day 1, and at predose, 1 hour and 1.5 hours postdose on Day 6, for measurement of cilansetron protein binding in serum.
# [2] = Study S.241.1.103: 14C mass balance, 8 mg oral and IV; type: in vivo, human
# Protocol: The extent of absorption, distribution, metabolism, and elimination of cilansetron has been examined in an open-label, randomized, two period, crossover, mass balance study in 6 healthy male subjects who were treated with a single oral and single […] (30-minute infusion) of 8 mg ^14C-labeled (50 K μCi) cilansetron, with a washout of at least 2 weeks between periods. The ^14C-cilansetron was appropriately labeled in the aromatic ring and the label was therefore not metabolically labile. Serial blood samples, urine collection, and fecal collection were performed up to 144 hours following each dose. ^14C-radioactivity was measured in plasma, whole blood, urine, and feces, and unchanged cilansetron was measured in plasma and urine. Identification of metabolites of cilansetron was performed in plasma, urine, and feces. The results of this study are presented in Table 2.7.2.3.15 and the mean concentration-time plots for ^14C-radioactivity and unchanged cilansetron are shown in FIG. 24 and FIG. 25.
# Cilansetron and metabolite profiles in plasma, urine, and feces were evaluated using HPLC separation followed by determination of radioactivity using scintillation counting. Cilansetron, (4R)-hydroxy cilansetron, and (4S)-hydroxy cilansetron accounted for 29.3%, 25.7%, and 13.8% of the total radioactivity, respectively, in plasma at 6 hours after oral administration, and for 46.2%, 20.0% and 14.1%3 of the total radioactivity in plasma at 3 hours after IV administration. The cumulative percent of cilansetron and 4-hydroxy metabolites excreted in urine over a 48-hour interval following dosing was 0.5% and 32.8% of the dose, respectively, following oral dosing, and 1.1% and 31.9% of the dose following IV dosing. In the case of fecal excretion over a 96-hour postdose, cilansetron, (4R)-hydroxy cilansetron, and (4S)-hydroxy cilansetron accounted for 1.2%, 6.9%, and 4.6% of the dose following oral administration, and 1.3%, 5.1%, and 11.3% of the dose following IV administration.
# [3] = Study S.241.1.110: pharmacokinetics in renal impairment, 2 mg TID; conditions: for AUC(0-τ) / Cmax / T½ / Tmax / Cmin: cilansetron 2 mg TID; for AUC(0-τ) / Cmax / T½ / Cmin: mean (%CV); for Tmax: median; for Cmin: Day 6 morning predose value
# Protocol: The effect of renal impairment on the pharmacokinetics of cilansetron was evaluated in a study excluding subjects with end-stage renal disease, and utilizing a single-center, open-label, multiple-dose, parallel group study in 13 male and 9 female subjects, aged 33-74 years. […] Healthy subjects were matched to renally-impaired subjects with respect to age, weight, gender, and smoking status. All subjects received oral cilansetron 2 mg TID on Days 1 to 5, and a single dose on the morning of Day 6. Blood samples for measurement of plasma pharmacokinetics of cilansetron and its 4-hydroxy metabolites were collected up to 24 hours following dosing on Day 6, and log-transformed pharmacokinetic parameters for these analytes were statistically compared between study groups. Serum concentrations of unbound cilansetron and its 4-hydroxy metabolites were also measured prior to dosing and at 1 and 1.5 hours postdose on Day 6.
# [4] = Study S.241.1.109: interaction with ketoconazole 200 mg BID; type: in vivo, human; conditions: for AUC(0-τ) / Cmax / Tmax: steady state; for AUC(0-τ): AUC(0-8); for AUC(0-τ) / Cmax: arith. mean; for Tmax: median
# Protocol: In an open-label, randomized, parallel-group study in three groups of 12 healthy, male and female subjects (aged 19 to 45 years), subjects received a 2 mg single dose of cilansetron on Day 1, 2 mg TID on Days 2-13, and a 2 mg single dose on Day 14. […] All morning doses of cilansetron and enzyme inhibitors were administered immediately after a standard breakfast. […] For each treatment group, log-transformed cilansetron AUC(0-τ) and Cmax values on Day 14 (cilansetron+enzyme inhibitor) were compared statistically versus values on Day 7 (cilansetron alone).
# [5] = geometric LS mean ratio impaired/healthy, cilansetron 8 mg TID oral
# [6] = healthy, cilansetron 8 mg TID oral
# [7] = hepatically impaired, cilansetron 8 mg TID oral
# [8] = moderate renal impairment, Day 6
# [9] = Cilansetron 2 mg TID + Ketoconazole 200 mg twice daily
# [10] = Cilansetron 2 mg TID alone (ketoconazole group)
# [11] = cilansetron + ketoconazole / cilansetron alone, ANOVA of log-transformed data
smiles,measurement,setting,value
Cc1nccn1CC1CCc2c(c3cccc4c3n2CC[C@@H]4O)C1=O (stereo partly drawn) [(4S)-hydroxy cilansetron],AUC(0-τ) Ratio,[1]; [5],0.68
same,Cmax Ratio,[1]; [5],0.64
same,"AUC(0-τ), Geom. LS Mean",[1]; [6],42.5 ng·h/mL
same,"Cmax, Geom. LS Mean",[1]; [6],6.89 ng/mL
same,AUC(0-τ),[1]; [6],47.9 (36) ng · h/mL
same,Cmax,[1]; [6],7.57 (33) ng/mL
same,T½,[1]; [6],7.65 (17) h
same,Tmax,[1]; [6],3.00 h
same,"AUC(0-τ), Geom. LS Mean",[1]; [7],29.1 ng·h/mL
same,"Cmax, Geom. LS Mean",[1]; [7],4.39 ng/mL
same,AUC(0-τ),[1]; [7],33.8 (57) ng · h/mL
same,Cmax,[1]; [7],5.17 (59) ng/mL
same,T½,[1]; [7],9.41 (30) h
same,Tmax,[1]; [7],3.00 h
same,AUC(0-τ) decrease with hepatic impairment,[1]; in vivo,32%
same,Cmax decrease with hepatic impairment,[1]; in vivo,36%
same,Share of total radioactivity in plasma,[2]; 3 hours after IV administration,14.1%
same,Share of total radioactivity in plasma,[2]; 6 hours after oral administration,13.8%
same,Fecal excretion over 96 hours,[2]; IV,11.3 % of the dose
same,Fecal excretion over 96 hours,[2]; oral,4.6 % of the dose
same,Plasma Conc.,"[3]; Day 6 1 h, Healthy",1.60 (26) ng/mL
same,Plasma Conc.,"[3]; Day 6 1 h, Mild",2.26 (43) ng/mL
same,Plasma Conc.,"[3]; Day 6 1 h, Moderate",2.74 (58) ng/mL
same,Plasma Conc.,"[3]; Day 6 1 h, Severe",8.32 (40) ng/mL
same,AUC(0-τ) ratio Mild/Healthy,"[3]; Day 6, geometric LS mean ratio (90% CI)","119 (85, 168) %"
same,AUC(0-τ) ratio Moderate/Healthy,"[3]; Day 6, ratio (90% CI)","174 (120, 251)* %"
same,AUC(0-τ) ratio Renal Combined/Healthy,"[3]; Day 6, ratio (90% CI)","219 (168, 286)* %"
same,AUC(0-τ) ratio Severe/Healthy,"[3]; Day 6, ratio (90% CI)","507 (351, 733)* %"
same,Cmax ratio Mild/Healthy,"[3]; Day 6, ratio (90% CI)","129 (91, 181) %"
same,Cmax ratio Moderate/Healthy,"[3]; Day 6, ratio (90% CI)","171 (118, 248)* %"
same,Cmax ratio Renal Combined/Healthy,"[3]; Day 6, ratio (90% CI)","220 (168, 288)* %"
same,Cmax ratio Severe/Healthy,"[3]; Day 6, ratio (90% CI)","485 (335, 702)* %"
same,T½ ratio Mild/Healthy,"[3]; Day 6, ratio (90% CI)","108 (81, 144) %"
same,T½ ratio Moderate/Healthy,"[3]; Day 6, ratio (90% CI)","142 (104, 193) %"
same,T½ ratio Renal Combined/Healthy,"[3]; Day 6, ratio (90% CI)","142 (113, 177)* %"
same,T½ ratio Severe/Healthy,"[3]; Day 6, ratio (90% CI)","186 (136, 254)* %"
same,Plasma Conc.,"[3]; Day 6 […], Healthy",1.68 (25) ng/mL
same,Plasma Conc.,"[3]; Day 6 […], Mild",1.91 (35) ng/mL
same,Plasma Conc.,"[3]; Day 6 […], Moderate",2.98 (56) ng/mL
same,Plasma Conc.,"[3]; Day 6 […], Severe",8.57 (32) ng/mL
same,AUC(0-τ),"[3]; healthy subjects, Day 6",12.9 (25) ng · h/mL
same,Cmax,"[3]; healthy subjects, Day 6",2.15 (21) ng/mL
same,T½,"[3]; healthy subjects, Day 6",8.68 (29) h
same,Tmax,"[3]; healthy subjects, Day 6",2.00 h
same,Cmin,[3]; healthy subjects,1.24 (31) ng/mL
same,Mean AUC(0-τ) increase vs healthy,[3]; mild impairment,19%
same,Mean Cmax increase vs healthy,[3]; mild impairment,29%
same,AUC(0-τ),"[3]; mild renal impairment, Day 6",15.3 (25) ng · h/mL
same,Cmax,"[3]; mild renal impairment, Day 6",2.77 (22) ng/mL
same,T½,"[3]; mild renal impairment, Day 6",9.31 (24) h
same,Tmax,"[3]; mild renal impairment, Day 6",2.00 h
same,Cmin,[3]; mild renal impairment,1.76 (38) ng/mL
same,Mean AUC(0-τ) increase vs healthy,[3]; moderate impairment,74%
same,Mean Cmax increase vs healthy,[3]; moderate impairment,71%
same,AUC(0-τ),[3]; [8],25.3 (64) ng · h/mL
same,Cmax,[3]; [8],4.10 (60) ng/mL
same,T½,[3]; [8],12.4 (28) h
same,Tmax,[3]; [8],1.75 h
same,Cmin,[3]; moderate renal impairment,2.71 (72) ng/mL
same,Mean AUC(0-τ) increase vs healthy,[3]; severe impairment,407%
same,Mean Cmax increase vs healthy,[3]; severe impairment,385%
same,AUC(0-τ),"[3]; severe renal impairment, Day 6",67.0 (35) ng · h/mL
same,Cmax,"[3]; severe renal impairment, Day 6",11.2 (46) ng/mL
same,T½,"[3]; severe renal impairment, Day 6",16.7 (45) h
same,Tmax,"[3]; severe renal impairment, Day 6",1.40 h
same,Cmin,[3]; severe renal impairment,7.00 (35) ng/mL
same,AUC(0-τ),[4]; [9],13.5 ng·h/mL
same,Cmax,[4]; [9],2.29 ng/mL
same,Tmax,[4]; [9],2.00 h
same,AUC(0-τ),[4]; [10],8.42 ng·h/mL
same,Cmax,[4]; [10],1.35 ng/mL
same,Tmax,[4]; [10],3.00 h
same,AUC(0-τ) Ratio (Treatment B/A),[4]; [11],163%
same,Cmax Ratio (Treatment B/A),[4]; [11],174%
